The text below walks through data of patent US4163011A, “Peptide compounds and compositions” (priority 1978, dated 1979).

What all share (format): in vivo
One assay deals with GnRH-induced rise in FSH. Kind of assay: Inhibition of GnRH-induced rise in FSH in the male rat (Table III). Particulars: for Mean concentration of plasma FSH (± SE): GnRH-treated male rat. The method, then: C. The antifertility effects of threonine-serine-lysine on the male rat are measured by their ability to inhibit GnRH-or gonadotropin releasing hormone-induced rise in FSH when threonine-serine-lysine is administered intravenously. In this test, both control and tripeptide-treated animals received GnRH in a phosphate buffered saline solution, followed by the administration of the tripeptide in the same buffer.

The subject of a further assay is Female Mice. Kind of assay: Compensatory ovarian hypertrophy in unilaterally ovariectomized mice (Table II). Particulars: 5 days after treatment, control 29.7 ± 8.4. The method, then: (§1) B. The effect of threonine-serine-lysine on serum concentrations of FSH in the […] is measured 24 hr after intraperitoneal injection of threonine-serine-lysine to unilaterally ovariectomized mice. On day 5 after injection, the animals were sacrificed and ovarian weights recorded There are then determined compensatory ovarian hypertrophy (5 days after treatment) as well as the serum FSH (24 hr after treatment).

A further assay relates to adult female mice. The assay is described as follows: Compensatory Ovarian Hypertrophy (COH) after unilateral ovariectomy (Table I). Particulars: for COH (± SE): sacrificed day 5, control 45.5 ± 5.3. The method, then:
A. Compensatory Ovarian Hypertrophy (COH) is an effect in standard laboratory (mammalian) animals for assessing antigonadotrophic activity by determining the increase in weight of the remaining gonad after unilateral gonadectomy. Procedures for COH measurement in female rats are described in Ramirez, V.D., et al., Endocrinology 95:475 (1974). According to these known procedures threonine-serine-lysine, prepared in Example 1, is administered intraperitoneally to adult female mice on the same day as a unilateral ovariectomy is performed. On day 5, both experimental and control animals are sacrificed and mean ovarian weights are obtained.

The next assay concerns Serum FSH. Kind of assay: Serum FSH in unilaterally ovariectomized mice (Table II). The note with it: 24 hr after treatment, control 296.8 ± 375. The method, then: as §1

The structures appear in SMILES notation. Peptide text beside a SMILES is read from it.

`C[C@@H](O)[C@H](N)C(=O)N[C@@H](CO)C(=O)N[C@@H](CCCCN)C(=O)O` [threonine-serine-lysine] (H-Thr-Ser-Lys-OH): the “Mean concentration of plasma FSH (± SE)” value in the assay with GnRH-induced rise in FSH (dose 1.48 ng intravenously, 0 min, control 362.5 ± 20.7) is 302.2 ± 26.2 ng/mL; in the assay with GnRH-induced rise in FSH (dose 1.48 ng intravenously, 15 min, control 1753.4 ± 450.6), 338.4 ± 38.8 ng/mL; with GnRH-induced rise in FSH (dose 1.48 ng intravenously, 30 min, control 1701.6 ± 720.6), 592.5 ± 217.6 ng/mL; with GnRH-induced rise in FSH (dose 1.48 ng intravenously, 60 min, control 247.8 ± 14.0), 586.5 ± 301.3 ng/mL; with GnRH-induced rise in FSH (dose 14.8 ng intravenously, 0 min, control 362.5 ± 20.7), 45.6 ± 52.3 ng/mL; with GnRH-induced rise in FSH (dose 14.8 ng intravenously, 15 min, control 1753.4 ± 450.6), 402.9 ± 117.7 ng/mL. For the same compound, the “Mean concentration of plasma FSH (± SE)” value in the assay with GnRH-induced rise in FSH (dose 14.8 ng intravenously, 30 min, control 1701.6 ± 720.6) came to 472.7 ± 76.9 ng/mL; with GnRH-induced rise in FSH (dose 14.8 ng intravenously, 60 min, control 247.8 ± 14.0), 684.5 ± 142.0 ng/mL; with GnRH-induced rise in FSH (dose 148 ng intravenously, 0 min, control 362.5 ± 20.7) it was 43.9 ± 85.6 ng/mL; in the assay on GnRH-induced rise in FSH (dose 148 ng intravenously, 15 min, control 1753.4 ± 450.6) it was 646.1 ± 198.0 ng/mL; in the assay on GnRH-induced rise in FSH (dose 148 ng intravenously, 30 min, control 1701.6 ± 720.6), 1407.8 ± 499.6 ng/mL; in the assay with GnRH-induced rise in FSH (dose 148 ng intravenously, 60 min, control 247.8 ± 14.0) it was 1279.6 ± 180.8 ng/mL. The “GnRH-induced rise in FSH, result in words” value with GnRH-induced rise in FSH (intravenous, male rat, Table III doses) is “FSH suppression”. The “COH (± SE)” value came to 12.6 ± 10.9% with Female Mice (dose 35.1 ng intraperitoneal); 21.9 ± 8.0% in the assay on Female Mice (dose 70.3 ng intraperitoneal); 12.9 ± 5.0% in the assay with Female Mice (dose 175.7 ng intraperitoneal); 21.1 ± 7.8% in the assay on Female Mice (dose 351.7 ng intraperitoneal); 34.6 ± 6.8% with adult female mice (dose 186.1 ng intraperitoneally on day of unilateral ovariectomy); 11.1 ± 15.1% in the assay on adult female mice (dose 372.2 ng intraperitoneally on day of unilateral ovariectomy). Also, the “Compensatory ovarian hypertrophy, result in words” value with adult female mice (intraperitoneal, Table I doses) was “reduced in a dose-dependent manner”. In addition, the “Serum FSH (± SE)” value stood at 254.4 ± 88.7 ng/mL with Serum FSH (dose 35.1 ng intraperitoneal), 377.0 ± 56.9 ng/mL in the assay on Serum FSH (dose 70.3 ng intraperitoneal), 165.0 ± 22.5 ng/mL with Serum FSH (dose 175.7 ng intraperitoneal) and 179.0 ± 60.9 ng/mL in the assay with Serum FSH (dose 351.7 ng intraperitoneal).
